Assay results from patent publication US20240368120A1 (Terns Pharmaceuticals, Inc., priority 2023, published 2024).

Target: T1, human GLP-1R receptor (Homo sapiens, UniProt P43220)
T1 construct: expressed in transfected cells
Experiment: GLP-1R low expression cell assay (cAMP TR-FRET, CHO-K1_hGLP-1Rlow_clone10 cells)
Assay type: cell-based
Details: for EC50: cAMP TR-FRET, 30 min at 25° C.; for Emax: maximum activation relative to control GLP-1 peptide agonist
Outline: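 CHO-K1 cells stably expressing low surface human GLP-1R (clone10), 1,000 cells/well, exposed to 10-point 3-fold compound dilutions for 30 min at 25 °C. cAMP measured by TR-FRET (Eu-cAMP tracer/ULight-anti-cAMP, 15 min). EC50 from Hill fit of duplicate percent activation relative to a parallel GLP-1 control agonist.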

T1 sequence (P43220 24-463): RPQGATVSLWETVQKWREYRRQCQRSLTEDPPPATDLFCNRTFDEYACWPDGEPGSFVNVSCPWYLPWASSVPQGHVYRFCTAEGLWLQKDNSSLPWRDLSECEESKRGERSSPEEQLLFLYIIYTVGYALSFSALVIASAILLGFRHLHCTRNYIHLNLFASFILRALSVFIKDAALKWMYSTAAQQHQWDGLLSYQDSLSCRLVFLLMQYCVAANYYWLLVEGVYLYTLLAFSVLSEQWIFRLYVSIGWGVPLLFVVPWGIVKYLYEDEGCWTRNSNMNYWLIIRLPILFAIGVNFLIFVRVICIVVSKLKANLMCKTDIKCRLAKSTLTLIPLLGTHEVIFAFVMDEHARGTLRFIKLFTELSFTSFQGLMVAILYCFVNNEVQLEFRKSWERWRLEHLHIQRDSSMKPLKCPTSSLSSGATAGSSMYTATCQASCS

EC50 [nM]	Emax [%]	Structure (SMILES)
> 1000	< 25	O=C(O)c1cc(OC(F)F)c2c(c1)nc(CN1CCC(c3cccc(OCc4ccc(Cl)cc4F)n3)CC1)n2CF [Compound 206, 2-((4-(6-((4-Chloro-2-fluorobenzyl)oxy)pyridin-2-yl)piperidin-1-yl)methyl)-7-(difluoromethoxy)-1-(fluoromethyl)-1H-benzo[d]imidazole-5-carboxylic acid]
10 to 100	> 85	Cn1c(CN2CCC(c3cccc(OCc4ccc(Cl)cc4F)n3)CC2)nc2c3c(c(C(=O)O)cc21)OCCO3 [Compound 311, 2-((4-(6-((4-chloro-2-fluorobenzyl)oxy)pyridin-2-yl)piperidin-1-yl)methyl)-3-methyl-7,8-dihydro-3H-[1,4]dioxino[2′,3′:3,4]benzo[1,2-d]imidazole-5-carboxylic acid]
< 10	50 to 85	COc1cc(-c2nnn[nH]2)cc2c1nc(CN1CCC(c3cccc(OCc4ccc(Cl)cc4F)n3)CC1)n2C[C@@H]1CCO1 [Compound 279, (S)-2-((4-(6-((4-Chloro-2-fluorobenzyl)oxy)pyridin-2-yl)piperidin-1-yl)methyl)-4-methoxy-1-(oxetan-2-ylmethyl)-6-(1H-tetrazol-5-yl)-1H-benzo[d]imidazole]
100 to 1000	> 85	Cn1c(CN2CCC(c3cccc(N4CCc5cc(C#N)cc(F)c5C4)n3)CC2)nc2c(OC(F)F)cc(C(=O)O)cc21 [Compound 151, 2-((4-(6-(6-Cyano-8-fluoro-3,4-dihydroisoquinolin-2(1H)-yl)pyridin-2-yl)piperidin-1-yl)methyl)-4-(difluoromethoxy)-1-methyl-1H-benzo[d]imidazole-6-carboxylic acid]
100 to 1000	50 to 85	Cn1c(CN2CCC(c3nc(OCc4ccc(Cl)cc4F)ccc3F)CC2)nc2c(OC(F)F)cc(C(=O)O)cc21 [Compound 243, 2-((4-(6-((4-Chloro-2-fluorobenzyl)oxy)-3-fluoropyridin-2-yl)piperidin-1-yl)methyl)-4-(difluoromethoxy)-1-methyl-1H-benzo[d]imidazole-6-carboxylic acid]
> 1000	< 25	COCCOCCOCCOCCOCCOc1cc(C(=O)O)cc2c1nc(CN1CCC(c3cccc4c3O[C@](C)(c3ccc(Cl)cn3)O4)CC1)n2Cc1cncs1 [Compound 5, (R)-4-((2,5,8,11,14-pentaoxahexadecan-16-yl)oxy)-2-((4-(2-(5-chloropyridin-2-yl)-2-methylbenzo[d][1,3]dioxol-4-yl)piperidin-1-yl)methyl)-1-(thiazol-5-ylmethyl)-1H-benzo[d]imidazole-6-carboxylic acid]
> 1000	25 to 50	Cn1c(CN2CCC(c3cccc(OCc4ccc(C#N)cc4F)c3Cl)CC2)nc2c(OC(F)F)cc(C(=O)O)cc21 [Compound 179, 2-((4-(2-Chloro-3-((4-cyano-2-fluorobenzyl)oxy)phenyl)piperidin-1-yl)methyl)-4-(difluoromethoxy)-1-methyl-1H-benzo[d]imidazole-6-carboxylic acid]
10 to 100	> 85	COc1c(F)c(C(=O)O)cc2c1nc(CN1CCC(c3cccc(OCc4ccc(Cl)cc4F)n3)CC1)n2C [Compound 337, 2-((4-(6-((4-Chloro-2-fluorobenzyl)oxy)pyridin-2-yl)piperidin-1-yl)methyl)-5-fluoro-4-methoxy-1-methyl-1H-benzo[d]imidazole-6-carboxylic acid]
< 10	> 85	CC(C)Oc1cc(C(=O)O)cc2c1nc(CN1CCC(c3cccc4c3O[C@@](C)(c3ccc(Cl)cn3)O4)CC1)n2C [Compound 84, (S)-2-((4-(2-(5-Chloropyridin-2-yl)-2-methylbenzo[d][1,3]dioxol-4-yl)piperidin-1-yl)methyl)-4-isopropoxy-1-methyl-1H-benzo[d]imidazole-6-carboxylic acid]
> 1000	> 85	Cn1c(N(C)[C@H]2CC[C@@H](c3cccc(OCc4ccc(C#N)cc4F)n3)CC2)nc2c(OC(F)F)cc(C(=O)O)cc21 [Compound 142, 2-(((1s,4s)-4-(6-((4-Cyano-2-fluorobenzyl)oxy)pyridin-2-yl)cyclohexyl)(methyl)amino)-4-(difluoromethoxy)-1-methyl-1H-benzo[d]imidazole-6-carboxylic acid]
> 1000	25 to 50	O=C(O)c1cc(OCF)c2c(c1)nc(CN1CCC(c3cccc(OCc4ccc(Cl)cc4F)n3)CC1)n2CF [Compound 347, 2-((4-(6-((4-Chloro-2-fluorobenzyl)oxy)pyridin-2-yl)piperidin-1-yl)methyl)-7-(fluoromethoxy)-1-(fluoromethyl)-1H-benzo[d]imidazole-5-carboxylic acid]
10 to 100	> 85	N#Cc1ccc(COc2cccc(C3CCN(Cc4nc5cc(C(=O)O)c6c(c5n4C[C@@H]4CCO4)OCCO6)CC3)n2)c(F)c1 [Compound 101, (S)-2-((4-(6-((4-Cyano-2-fluorobenzyl)oxy)pyridin-2-yl)piperidin-1-yl)methyl)-1-(oxetan-2-ylmethyl)-7,8-dihydro-1H-[1,4]dioxino[2′,3′:3,4]benzo[1,2-d]imidazole-5-carboxylic acid]
> 1000	50 to 85	CCOc1cc(C(=O)O)cc2c1nc(CN1CCC(c3cccc4c3OC[C@H](c3ccc(C#N)cc3F)O4)CC1)n2C [Compound 277, (S)-2-((4-(2-(4-Cyano-2-fluorophenyl)-2,3-dihydrobenzo[b][1,4]dioxin-5-yl)piperidin-1-yl)methyl)-4-ethoxy-1-methyl-1H-benzo[d]imidazole-6-carboxylic acid]
10 to 100	> 85	Cn1c(CN2CCC(c3cccc(OCc4c(F)cc(Cl)cc4F)n3)CC2)nc2c(OC(F)F)cc(C(=O)O)cc21 [Compound 153, 2-((4-(6-((4-Chloro-2,6-difluorobenzyl)oxy)pyridin-2-yl)piperidin-1-yl)methyl)-4-(difluoromethoxy)-1-methyl-1H-benzo[d]imidazole-6-carboxylic acid]
10 to 100	> 85	C[C@H](F)Oc1cc(C(=O)O)cc2c1nc(CN1CCC(c3cccc(OCc4ccc(C#N)cc4F)n3)CC1)n2C [Compound 313, (S)-2-((4-(6-((4-Cyano-2-fluorobenzyl)oxy)pyridin-2-yl)piperidin-1-yl)methyl)-4-(1-fluoroethoxy)-1-methyl-1H-benzo[d]imidazole-6-carboxylic acid]
10 to 100	> 85	Cn1c(CN2CCC(c3cccc(OCc4ccc(Cl)cc4F)n3)CC2)nc2c(Cl)cc(C(=O)O)cc21 [Compound 218, 4-chloro-2-((4-(6-((4-chloro-2-fluorobenzyl)oxy)pyridin-2-yl)piperidin-1-yl)methyl)-1-methyl-1H-benzo[d]imidazole-6-carboxylic acid]
10 to 100	> 85	COc1cc(F)ccc1COc1cccc(C2CCN(Cc3nc4c(OC(F)F)cc(C(=O)O)cc4n3C)CC2)n1 [Compound 231, 4-(Difluoromethoxy)-2-((4-(6-((4-fluoro-2-methoxybenzyl)oxy)pyridin-2-yl)piperidin-1-yl)methyl)-1-methyl-1H-benzo[d]imidazole-6-carboxylic acid]
10 to 100	> 85	Cn1c(Cc2ccc(-c3cccc(OCc4ccc(Cl)cc4F)n3)cc2F)nc2c(OC(F)F)cc(C(=O)O)cc21 [Compound 198, 2-(4-(6-((4-Chloro-2-fluorobenzyl)oxy)pyridin-2-yl)-2-fluorobenzyl)-4-(difluoromethoxy)-1-methyl-1H-benzo[d]imidazole-6-carboxylic acid]
< 10	> 85	Cn1c(CN2CCC(c3cccc(OCc4ccc(C#N)cc4F)n3)CC2)nc2c(O)cc(C(=O)O)cc21 [Compound 114, 2-((4-(6-((4-Cyano-2-fluorobenzyl)oxy)pyridin-2-yl)piperidin-1-yl)methyl)-4-hydroxy-1-methyl-1H-benzo[d]imidazole-6-carboxylic acid]
10 to 100	> 85	C[C@@H](F)Oc1cc(C(=O)O)cc2c1nc(CN1CCC(c3cccc(OCc4ccc(C#N)cc4F)n3)CC1)n2C [Compound 312, (R)-2-((4-(6-((4-Cyano-2-fluorobenzyl)oxy)pyridin-2-yl)piperidin-1-yl)methyl)-4-(1-fluoroethoxy)-1-methyl-1H-benzo[d]imidazole-6-carboxylic acid]
10 to 100	> 85	Cn1c(CN2CCC(c3cccc(OCc4ccc(Cl)cc4F)n3)CC2)nc2c(OCC3(F)CC3)cc(C(=O)O)cc21 [Compound 188, 2-((4-(6-((4-Chloro-2-fluorobenzyl)oxy)pyridin-2-yl)piperidin-1-yl)methyl)-4-((1-fluorocyclopropyl)methoxy)-1-methyl-1H-benzo[d]imidazole-6-carboxylic acid]
100 to 1000	> 85	Cn1c(CN2CCC(c3ccnc(OCc4ccc(C#N)cc4F)n3)CC2)nc2c(OC(F)F)cc(C(=O)O)cc21 [Compound 145, 2-((4-(2-((4-Cyano-2-fluorobenzyl)oxy)pyrimidin-4-yl)piperidin-1-yl)methyl)-4-(difluoromethoxy)-1-methyl-1H-benzo[d]imidazole-6-carboxylic acid]
100 to 1000	50 to 85	Cn1c(CN2CCC(c3cccc(OCc4ccc(Cl)cc4F)n3)CC2)nc2c(OCC3(C#N)CC3)cc(C(=O)O)cc21 [Compound 214, 2-((4-(6-((4-Chloro-2-fluorobenzyl)oxy)pyridin-2-yl)piperidin-1-yl)methyl)-4-((1-cyanocyclopropyl)methoxy)-1-methyl-1H-benzo[d]imidazole-6-carboxylic acid]

Structure (SMILES)	EC50 [nM]	Emax [%]
Cn1c(CN2CCC(c3cccc(OCc4ccc(Cl)cc4F)n3)CC2)nc2c(O[C@H]3C[C@H](F)C3)cc(C(=O)O)cc21 [Compound 353, 2-((4-(6-((4-Chloro-2-fluorobenzyl)oxy)pyridin-2-yl)piperidin-1-yl)methyl)-4-((1r,3r)-3-fluorocyclobutoxy)-1-methyl-1H-benzo[d]imidazole-6-carboxylic acid]	10 to 100	> 85
